Assay results reported in patent US20050054587A1, “Novel therapeutic indication of azithromycin for treatment of non-infective inflamatory diseases” (priority 2001, published 2005).

Tested on: IL-8
Test: Serum IL-8 concentration, ELISA
Format: in vivo, human
Conditions: healthy volunteers, azithromycin 3×500 mg, baseline 29.47 ± 15.44
Method: A trial on healthy volunteers was conducted and the influence of azithromycin given in a dosage of 3×500 mg on selected inflammation-relevant parameters was followed up.
Each subject received two standard 250 mg capsules of azithromycin (Sumamed®, PLIVA Zagreb) on three consecutive days. Immediately before the treatment and 2 h and 30 min, 24 h and 28 days after the third and last dose of azithromycin blood was collected from the cubital vein into EDTA-containing tubes. Aliquots were taken for cell counting, smear preparation, polymorphonuclear cell and serum isolation.
Cytokine and chemokine concentrations were determined using ELISA kits. […] Rapid and pronounced decreases in the plasma concentrations of the neutrophil-stimulating chemokine, IL-8, and GR0-α were observed 2 h and 30 min and 24 h after the last dose of azithromycin (Table 1. The concentration of IL-8 returned essentially to baseline after 28 days, while that of GRO-[…] was decreased at this time.

CC[C@H]1OC(=O)[C@H](C)[C@@H](O[C@H]2C[C@@](C)(OC)[C@@H](O)[C@H](C)O2)[C@H](C)[C@@H](O[C@@H]2O[C@H](C)C[C@H](N(C)C)[C@H]2O)[C@](C)(O)C[C@@H](C)CN(C)[C@H](C)[C@@H](O)[C@]1(C)O [azithromycin, 9-deoxo-9-dihydro-9a-methyl-9a-aza-9a-homoerythromycin A]
IL-8 (serum) (2 h and 30 min after last dose): 10.61 ± 3.81 pg/mL
IL-8 (serum) (24 hours after last dose): 14.60 ± 10.75 pg/mL
IL-8 (serum) (28 days after last dose): 23.03 ± 19.72 pg/mL
